Assays:
[1] = system: A-594 cell line; design: method as in doi:10.1016/j.arabjc.2021.103644; settings: read-out: IC50, antiproliferative activity; cited from earlier work
[2] = system: EC-109 cell line; design: method as in doi:10.1016/j.arabjc.2021.103644; settings: read-out: IC50, antiproliferative activity; cited from earlier work
[3] = system: PC-3 cell line; design: method as in doi:10.1016/j.arabjc.2021.103644; settings: read-out: IC50, antiproliferative activity; cited from earlier work
[4] = system: HCT-116 cell line; design: method as in doi:10.1016/j.arabjc.2021.103644; settings: read-out: IC50, antiproliferative activity; cited from earlier work
[5] = system: MGC-803 cell line; design: method as in doi:10.1016/j.arabjc.2021.103644; settings: read-out: IC50, antiproliferative activity; cited from earlier work
[6] = system: hepatocellular carcinoma HepG2 cell line; assay: MTT cytotoxicity assay, HepG2; format: cell-based, human; settings: Homo sapiens, HepG2, 24 h treatment, mean ± SE
Description: (§1) All the newly synthesized analogs were evaluated for their in vitro cytotoxicity against the hepatocellular carcinoma HepG2 cell line. Podo was utilized as a reference control in the current study. […] The N-phenyl triazinone derivative 9 was further investigated for its cytotoxic effects against normal liver cell line HL-7702.
(§2) MTT colorimetric assay was carried out to investigate the impact of the newly synthesized compounds 2–11 on hepatocellular carcinoma (HepG2) and normal liver cell line (HL-7702) cell lines. See Section 3.3.1 in Supplementary Material.
(§3) 3.3.1. Cytotoxic activity evaluation
To measure the cytotoxic activity of the synthesized derivatives 2a-11 in hepatocel-lular carcinoma (HepG2) cell line (ATCC Cat No. HB-8065) as well as normal human liver cell line HL-7702 (ATCC Cat. No. 77402), cell viability assay was assessed using MTT assay method. Cells at density of 1 x 104 were seeded in a 96-well plate at 37 °C for 24 h under 5% CO2. After incubation, the cells were treated with different concentrations of the test compounds 2a-11 and incubated for 24 h, then 20 μl of MTT solution at 5 mg/mL was applied and incubated for 4 h at 37 °C. Dimethyl sulphoxide (DMSO) in volume of 100 µl was added to each well to dissolve the purple formazan that had formed. The color inten-sity of the formazan product, which represents the growth condition of the cells, is quan-tified by using an ELISA plate reader (EXL 800, USA) at 570 nm absorbance. The experi-mental conditions were carried out with at least three replicates, and the experiments were repeated at least three times.
3.3.2. Tubulin inhibitions Assay
(§4) Compounds 9, 10 and 11 were evaluated for their tubulin inhibitory activity levels according to the manufacturer’s instructions using # abcam Human Beta-tubulin simplestep […]
3.3.3. Cell cycle analysis of compound 9
Cell cycle analysis in HepG2 cells was investigated using fluorescent Annexin V-FITC/ PI detection kit (BioVision EZCellTM Cell Cycle Analysis Kit Catalog #K920) by flow cytometry assay. HepG2 cells at a density of 2 × 10^5 per well were harvested and washed twice in PBS. After that, the cells were incubated at 37 °C and 5% CO2. […] Afterward, medium was stained with DNA flu-orochrome PI for 15 min at 37 °C. The samples were immediately analyzed using Facs Calibur flow cytometer (Becton and Dickinson, Heidelberg, Germany).
3.3.4. Apoptosis assay for compound 9
Apoptosis in HepG2 cells was investigated using fluorescent Annexin V-FITC/ PI de-tection kit (BioVision Annexin V-FITC Apoptosis Detection Kit, Catalog #: K101) by flow cy-tometry assay. HepG2 cells at a density of 2 × 10^5 per well were treated with compound 9 at its IC50 (μM) for 48 h, then the cells were harvested and stained with Annexin V-FITC/ PI dye for 15 min in the dark at 37 °C. The samples were immediately analyzed using FACS Calibur flow cytometer (Becton and Dickinson, Heidelberg, Germany).
3.3.5. Measurement of mitochondrial membrane potential (MMP) for compound 9 MMP was measured by FACS analysis using abcam ab113852TMRE Mitochondrial Membrane Potential Assay Kit with DiOC2(3) staining using MitoProbe™ DiOC2(3) Assay Kit for Flow Cytometry (M34150). After treatment with compound 9 at its IC50 concentra-tion, cells were stained with DiOC2(3) dye for 30 min in the incubator, then harvested and washed with PBS. DiOC2(3)-stained cells were represented with Annexin binding buffer and incubated at 37 °C for 15 min. The samples were immediately analyzed using cell […]
3.3.6. Effect on p53, Bax and Bcl-2 p53, Bax and Bcl2 enzyme activities in HepG2 cells were detected in the presence of com-pound 9 at its IC50 concentration (μM). The levels of the tumor suppressor gene p53, apoptotic markers Bax as well as the anti-apoptotic marker Bcl-2 were assessed using p53 ELISA kit, Human Bax ELISA kit and Bcl-2 Elisa kit. […]

[7] = system: normal liver cell line HL-7702; assay: MTT cytotoxicity assay, normal liver cells; format: cell-based; settings: Homo sapiens, L02, 24 h treatment, mean ± SE
Description: as §1, §2, §3
To measure the cytotoxic activity of the synthesized derivatives 2a-11 in hepatocel-lular carcinoma (HepG2) cell line (ATCC Cat No. HB-8065) as well as normal human liver cell line HL-7702 (ATCC Cat. No. 77402), cell viability assay was assessed using MTT assay method. Cells at density of 1 x 104 were seeded in a 96-well plate at 37 °C for 24 h under 5% CO2. […] The color inten-sity of the formazan product, which represents the growth condition of the cells, is quan-tified by using an ELISA plate reader (EXL 800, USA) at 570 nm absorbance. […]
as §4
3.3.5. […] The samples were immediately analyzed using cell […]

[8] = system: β-tubulin; assay: Tubulin polymerization inhibition (beta-tubulin ELISA in HepG2 cells); format: cell-based, human
Description: The selected candidates were tested at a concentration equal to their IC50 concentration dose value. […] See Section 3.3.2 in Supplementary Material. […] page 18: 3.3. Biological studies 3.3.1. Cytotoxic activity evaluation To measure the cytotoxic activity of the synthesized derivatives 2a-11 in hepatocel- lular carcinoma (HepG2) cell line (ATCC Cat No. HB-8065) as well as normal human liver cell line HL-7702 (ATCC Cat. No. 77402), cell viability assay was assessed using MTT assay method. Cells at density of 1 x 104 were seeded in a 96-well plate at 37 °C for 24 h under 5% CO2. After incubation, the cells were treated with different concentrations of the test compounds 2a-11 and incubated for 24 h, then 20 μl of MTT solution at 5 mg/mL was […] Dimethyl sulphoxide (DMSO) in volume of 100 μl was added to each well to dissolve the purple formazan that had formed. The color […] of the formazan product, which represents the growth condition of the cells, is quan- […] by using an ELISA plate reader (EXL 800, USA) at 570 nm absorbance. The experi- mental conditions were carried out with at least three replicates, and the experiments were repeated at least three times. 3.3.2. Tubulin inhibitions Assay […] according to the manufacturer's instructions using # abcam Human Beta-tubulin […] ELISA Kit ab245722. 3.3.3. Cell cycle analysis of compound 9 Cell cycle analysis in HepG2 cells was investigated using fluorescent Annexin V- FITC/ PI detection kit (BioVision EZCellTM Cell Cycle Analysis Kit Catalog #K920) by flow cytometry assay. […] twice in PBS. After that, the cells were incubated at 37 °C and 5% CO2. […] Apoptosis assay for compound 9 Apoptosis in HepG2 cells was investigated using fluorescent Annexin V-FITC/ PI de- tection kit (BioVision Annexin V-FITC Apoptosis Detection Kit, Catalog #: K101) by flow cy- tometry assay. […] The samples were immediately analyzed using FACS Calibur flow cytometer (Becton and Dickinson, Heidelberg, Germany). 3.3.5. Measurement of mitochondrial membrane potential (MMP) for compound 9 MMP was measured by FACS analysis using abcam ab113852TMRE Mitochondrial Membrane Potential Assay Kit with DiOC2(3) staining using MitoProbeTM DiOC2(3) Assay Kit for Flow Cytometry (M34150). After treatment with compound 9 at its IC50 concentra- tion, cells were stained with DiOC2(3) dye for 30 min in the incubator, then harvested and washed with PBS. […] The samples were immediately analyzed using cell Quest software. […] Effect on p53, Bax and Bcl-2 p53, Bax and Bcl2 enzyme activities in HepG2 cells were detected in the presence of com- pound 9 at its IC50 concentration (μM). The levels of the tumor suppressor gene p53, apoptotic markers Bax as well as the anti-apoptotic marker Bcl-2 were assessed using p53 ELISA kit, Human Bax ELISA kit and Bcl-2 Elisa kit. […]

[9] = system: eight cancer cell lines; design: method as in PMID 23547728; settings: read-out: average IC50 over eight cancer cell lines; cited from earlier work

SMILES: COc1cc(Nc2nc(Cc3ccc(C(=O)/C=C/c4ccccn4)cc3)nnc2Cl)cc(OC)c1OC [V]
- IC50 [1]: 520 nM
- IC50 [2]: 780 nM
- IC50 [3]: 610 nM
- IC50 [4]: 430 nM
- IC50 [5]: 410 nM

SMILES: COc1cc([C@@H]2c3cc4c(cc3[C@H](O)[C@H]3COC(=O)[C@H]23)OCO4)cc(OC)c1OC [podo, podophyllotoxin, reference compound]
- IC50 [6]: 2.08 ± 0.04 µM
- IC50 [7]: 18.6 ± 0.58 µM
- β-tubulin polymerization inhibition percentage [8]: 91.32%

SMILES: COc1cc(C(=O)c2nc(-c3ccccc3)c[nH]2)cc(OC)c1OC [RABI-112]
- IC50 [9]: 14 nM
